# Results as given in patent publication US20260209275A1, “PEPTIDE(S), COMPOSITION(S) AND METHOD(S) HAVING BROAD SPECTRUM ACTIVITY AGAINST CROP INSECTS” (TELLURIS BIOTECH INDIA PRIVATE LIMITED, priority 2022, published 2026).
# Tested on: Common fruit fly, Drosophila melanogaster
# Assay: Diet surface treatment bioassay against common fruit fly, population after one generation
# Assay type: in vivo
# Conditions: single peptide 0.1 mg/ml; after 14 days (one generation)
# Experimental: A trap made up from a ripened banana was kept in an open, shady, and damp place to capture the flies. Captured flies were anaesthetized using about 5% Triethylamine (TAE) treatment for about 1 minute. Drosophila melanogaster files were identified, separated, and transferred to a flask containing diet made up of Corn flour: about […], Sugar: about 51 μm, Agar agar: about […], Yeast: about 17 μm, Methyl Paraben: about 4 μm, Propionic acid: about 4 ml, Distilled Water: about 1200 ml. Freshly emerged flies were transferred to separate bottle to synchronize the population. The population was maintained in a separate room at a temperature of about 25±2° C., RH of about 60-65% and was subjected to a 16:8 (light: dark) h photoperiod.
# The insecticide stock solutions were prepared by dilution with phosphate buffered saline (PBS, pH 7.0) to achieve desire doses of test. Semi synthetic artificial diet surface treatment method was used to assess the efficacy of IPPs against […]. Diet was prepared as per the composition given above. 2 ml hot liquid diet poured in 25 ml glass vials (5 cm h and 1.5 cm diameter) and allowed to cool and solid. […] After 14 days precisely after one generation, insect stages, egg, larvae, pupa and adults were counted.
smiles,measurement,value
"CC[C@H](C)[C@H](NC(=O)[C@H](CCC(N)=O)NC(=O)[C@H](CCC(N)=O)NC(=O)[C@H](CCC(=O)O)NC(=O)[C@H](CCCCN)NC(=O)[C@H](CCC(N)=O)NC(=O)[C@H](CCC(=O)O)NC(=O)[C@H](C)NC(=O)[C@@H](N)CCSC)C(=O)N[C@@H](CC(C)C)C(=O)N[C@@H](CCCNC(=N)N)C(=O)N[C@@H](CC(C)C)C(=O)N[C@@H](CCCNC(=N)N)C(=O)N[C@@H](CCC(=O)O)C(=O)N[C@@H](CO)C(=O)N[C@@H](Cc1c[nH]cn1)C(=O)N[C@@H](Cc1c[nH]cn1)C(=O)N[C@@H](Cc1c[nH]cn1)C(=O)N[C@@H](Cc1c[nH]cn1)C(=O)N[C@@H](Cc1c[nH]cn1)C(=O)N[C@@H](Cc1c[nH]cn1)C(=O)O [Seq. ID No. 3, MAEQKEQQILRLRES]",Observed Response (Percent reduction of population over UTC) SEQ ID No. X / SEQ ID No. Y,37.79%
